# According to US20250188032A1, “NITROGEN-CONTAINING HETEROCYCLIC COMPOUNDS AND USES THEREOF” (BNH RESEARCH CO., LTD., priority 2022, published 2025):
# Key:
# [1] = tested on: C57BL/6J mice barrel cortex (layer 4); test: Synaptic function test: TC EPSC potency and GABA/AMPA ratio in barrel cortex (layer 4); type: in vivo
# Source text: Eight weeks old male C57BL/6J mice were anesthetized with isoflurane during surgery. The mice were then be placed in a stereotaxic frame (RWD Life Science, China). The parietal and the frontal bones were exposed by a sagittal incision of the scalp at the midline from the level of the eyes to the occipital protuberance. A small burr hole was drilled after exposing the skull. The injection cannula was placed at the following coordinates: (Mouse: Bregma −3.30, lateral −1.50, and ventral 0.7 mm). Sterile saline solution (+/−a compound of the present disclosure) was perfused at a constant flow rate of 0.5 μL/h through the injection cannula using a mini-Os pump (DURECT Corporation ALZET Osmotic Pumps, CA). Implantation was done in layer 4 of the barrel cortex ipsilateral. To estimate extent of the diffusion of the injected compound in layer 4 barrel cortex during pump injection, methylene blue was first injected to stain the diffusion area. On average methylene blue diffused to […] away from the injection site (the total area of the barrel cortex region is about 1500 μm). Based on this analysis, the present inventors recorded from barrel cortex area.
# 2 mg of BnH12001 was dissolved in 800 ul of DMSO and prepared as a stock solution. For oral administration, BnH12001 DMSO stock:PEG400:Saline was mixed in a ratio of 5:55:40 and 200 μl/animal was administered. For the control group, a vehicle in which DMSO:PEG400:Saline was mixed in a 5:55:40 ratio was administered at 200 ul/animal. In the single drug administration test, the compound was administered once a day for about 11 to 12 days at a dose of 1 mg/kg. Dose response test was performed by administering the compound once a day for about 11 to 12 days at doses of 0.03, 0.1, 0.3, 1, 3, and 10 mg/kg. 5 mice were used for the compound administration group and the control group, respectively.
# For TC or hippocampus slice preparation. 9 to 10 weeks-old male C57BL/6J mice were anesthetized with isoflurane. Then, the brain was rapidly cooled via transcardial perfusion with ice-cold sucrose-artificial cerebrospinal fluid (aCSF). The brain was removed and placed in ice-cold sucrose aCSF. Paracoronal slices were prepared at an angle of 50° relative to the midline on a ramp at an angle of 10°. Then, slices were incubated in aCSF at 35° C. for 30 minutes to recover. Slices were then incubated in aCSF at room temperature (23 to 25° C.) for 1 to 4 hours before being placed in the recording chamber for experiments. The standard aCSF contains saturated with 95% O2/5% CO2. The brain of the mouse was removed and cut into 400 μm at a 50° angle (mouse at a 55° angle) to attach the cut portion to the vibratome disc to be the bottom. Brain slice was incubated in 35° C. in aCSF solution for 30 minutes, or at RT in aCSF solution for 1 hour.
# All electrophysiological experiments were conducted at 27 to 29° C. For electrophysiological experiments, electrodes with […] resistance were used and stimuli were applied to the ventral posteromedial nucleus (VPM) using a concentric bipolar electrode (FHC, Bowdoin, ME). The somatosensory cortex was identified by the presence of barrels under 4× magnification and differential interference contrast (DIC) optics, and by the ability to evoke short and constant latency field excitatory postsynaptic potentials (fEPSPs) by VPM stimulation. Whole-cell voltage-clamp recordings were made from stellate cells (SC) in layer IV of the somatosensory barrel cortex using infrared illumination and differential interference contrast (DIC) optics. The composition of whole cell recording solution is shown as follows:
# Whole cell recordings were made using a multiclamp 700A (Molecular devices, Sunnyvale, CA) digitized at 10 kHz and filtered at 2 kHz. […]
# 293T cells = test: Cytotoxicity test (CCK-8 cell viability) in 293T cells; type: cell-based, human; settings: 24 hours co-incubation, 293T cell line, % of control
# Protocol: Human undifferentiated neuroblastoma cell line SH-SY5Y and human embryonic kidney cell line (HEK)-293T were purchased from Korean Cell Line Bank (Korea) and Takara (Japan), respectively. Cells were grown in HyClone Minimal Essential Medium (MEM) and Dulbecco's Modified Eagle Medium (DMEM), respectively, supplemented with 10% (v/v) fetal bovine serum (FBS), penicillin (100 U/mL), and streptomycin ([…]). Cells were maintained in a humidified atmosphere of 95% air and 5% CO2 at 37° C. Cells were passaged 10 times at maximum. Cells were dissociated using 0.05% trypsin-EDTA solution and the cells were seeded in new culture dishes for maintenance.
# To examine the cytotoxicity of compounds described herein in human cell lines, SH-SY5Y and 293T cells were used. Approximately 8,000 cells (for 293T) and 15,000 cells (for SH-SY5Y) were plated per well of a 96-well plate (SPL Life Sciences Co., Ltd., Pocheon, Korea). After incubating at 37° C. for 24 hours in a humidified atmosphere containing 5% CO2, the culture medium was replaced by a series of concentrations of test compounds diluted in the corresponding culture medium. The time of co-incubation was 24 hours and six replicates were made for each measurement. Finally, 10 μL of CCK-8 reagent (Dojindo Laboratories, Rockville, MD) was added to each well, and after incubation at 37° C. for 3 minutes, the OD at 450 nm was measured using a multifunction microplate reader (Tecan Infinite M200 Pro). These measurements were compared to that of a control and expressed as a percentage of the control to calculate cell viability. The IC50 value was calculated using SPSS software. To do this, the absorbance of the blank wells with only growth medium is subtracted from the values or the wells with cells. The readout value of background (vehicle) was set as a 100% viability, and then the percent viability for each test solution was calculated.
# Cell viability (%)=[(As-Ab)/(Ac-Ab)]×100
# The data was presented as the mean value and standard error of the mean (S.E.M.). Statistical analysis was performed with the one-way ANOVA with Tukey's post hoc test (GraphPad Prism 5 software package, version 5.02, GraphPad Software Inc. USA). Significance was accepted at p<0.05.
# GluN2B = test: Western blot of GluN2B protein in cultured fetal cortical cells; type: cell-based, mice
# Protocol: The amount of GluN2B reacted with the compound of the present disclosure was measured using Western blot. The fetal cerebral cortex was extracted from mice at 17 days of gestation, dissociated into single cells, cultured for 13 days, and treated with BnH drugs for 24 hours. The drug-treated cells were subjected to protein lysate preparation using RIPA protein lysis buffer containing protease and phosphatase inhibitors. The protein concentration was determined using a BCA protein assay kit (Pierce Biotechnology) using bovine serum albumin as a standard. Equal amounts of protein (20 μg per lane) were separated by electrophoresis on SDS-polyacrylamide gels at 90 V for 2 hours, then transferred from the SDS-polyacrylamide gel to PVDF membrane at 100 V for 1 hour. Then, primary reaction with GluN2B antibody (ab65783, Abcam) was performed at 4° C. for 1 day, washed three times at 10-minutes intervals with 1×PBT, and secondary reaction was performed with anti-mouse antibody (sc-2357, Santa Cruz) for 1 hour, followed by washing three times at 10-minutes intervals with 1×PBT. Western blotting was performed as described above to confirm GluN2B protein expression. Subsequently, each blot was re-probed using anti-β-actin antibody (sc-47778, Santa Cruz). Housekeeping protein β-actin was detected as a normalization control.
# The increase and decrease of BnH12 series were confirmed by setting the vehicle to 1 (N for each group was 3 or more).
# Using the experimental procedure described in Example 3, it was determined whether various BnH12 series compounds increase GluN2B expression, and the results are shown in Table 6. These in vitro experimental results are expressed as relative values to the group (vehicle) that was not treated with the compound, with the effect of the group set to 1.
# [2] = oral, 1 mg/kg, 8-week-old C57BL/6J mice
# [3] = applied to the mice barrel cortex using Alzet osmotic pump
molecule,measurement,setting,value
"C[C@H]1CC[C@@H](C(=O)O)CN1C(=O)Cc1ccc(F)cc1Cl [BnH12001 enantiomer (3R,6S, 98%<), (3R,6S)-1-(2-(2-chloro-4-fluorophenyl)acetyl)-6-methylpiperidine-3-carboxylic acid]",Balance of excitation/inhibition (GABA/AMPA ratio),[1]; [2],maintaining the balance of excitation/inhibition
same,Efficacy on TC synaptic potency compared among racemate and enantiomers,[1]; [2],better efficacy than the racemate
same,TC synaptic potency in the sensory cortex,[1]; [2],increase the TC synaptic potency
"CC(C)C1CCC(C(=O)O)CN1C(=O)Cc1ccc(F)cc1Cl (centres unmarked) [BnH12096, 1-(2-(2-chloro-4-fluorophenyl)acetyl)-6-isopropylpiperidine-3-carboxylic acid]",Cell viability test results (CCK) 10 uM,293T cells; 10 uM,70%<
same,Cell viability test results (CCK) 100 uM,293T cells; 100 uM,65%<
same,Effect on GluN2B expression compared to the vehicle,GluN2B; comment on Table 6,excellent effects
same,"GluN2B expression, Western blot results, Mean","GluN2B; relative value, vehicle set to 1, treated for 24 hours, N 3 or more",2.848
cyclotraxin B [reference compound],BDNF-induced augmentation of TC EPSC potency,[1]; cyclotraxin B 1 μM application,almost completely prevented
same,BnH12001-induced increase of TC EPSC potency,[1]; cyclotraxin B 1 μM application,nearly completed hindered
"BDNF: brain-derived neurotrophic factor applied to the mice barrel cortex using Alzet osmotic pump (protein, UniProt P23560 19-247, looked up) Neurotrophic factor BDNF …: APMKEANIRGQGGLAYPGVRTHGTLESVNGPKAGSRGLTSLADTFEHVIEELLDEDQKVRPNEENNKDADLYTSRVMLSSQVPLEPPLLFLLEEYKNYLDAANMSMRVRRHSDPARRGELSVCDSISEWVTAADKKTAVDMSGGTVTVLEKVPVSKGQLKQYFYETKCNPMGYTKEGCRGIDKRHWNSQCRTTQSYVRALTMDSKKRIGWRFIRIDTSCVCTLTIKRGR",IPSC/EPSC ratio,[1]; [3],without alteration
same,TC EPSC potency,[1]; [3],significantly increased
